{"source": "ChEMBL document CHEMBL1153697", "about": "“Bioactive constituents of the stem bark of Mitrephora glabra” (J Nat Prod, 2009)", "key": {"[1]": {"test_system": "Mycolicibacterium smegmatis", "assay": "Antibacterial activity against Mycobacterium smegmatis after 3 days by broth microdilution method", "type": "functional", "details": "72 h"}, "[2]": {"test_system": "NCI-H460", "assay": "Cytotoxicity against human NCI-H460 cells after 3 days by sulforhodamine B assay", "type": "functional, cell-based", "details": "for IC50: NCI-H460, 72 h"}, "[3]": {"test_system": "SF-268", "assay": "Cytotoxicity against human SF268 cells after 3 days by sulforhodamine B assay", "type": "functional, cell-based", "details": "for IC50: SF-268, 72 h"}, "[4]": {"test_system": "Aspergillus niger", "assay": "Antifungal activity against Aspergillus niger after 3 days by broth microdilution method", "type": "functional", "details": "72 h"}, "[5]": {"test_system": "Saccharomyces cerevisiae", "assay": "Antifungal activity against Saccharomyces cerevisiae after 3 days by broth microdilution method", "type": "functional", "details": "72 h"}, "[6]": {"test_system": "MCF7", "assay": "Cytotoxicity against human MCF7 cells after 3 days by sulforhodamine B assay", "type": "functional, cell-based", "details": "for IC50: MCF7, 72 h"}, "[7]": {"test_system": "KB", "assay": "Cytotoxicity against human KB cells after 3 days by sulforhodamine B assay", "type": "functional, cell-based", "details": "for IC50: 72 h"}, "[8]": {"test_system": "Micrococcus luteus", "assay": "Antibacterial activity against Micrococcus luteus after 3 days by broth microdilution method", "type": "functional", "details": "72 h"}}, "note": "Activity calls are given as the source filed them. The calls are words filed in the database; no cut-off is given here.", "data": [{"smiles": "C=C1C[C@@]23CC[C@H]4[C@@](C)(CCC[C@]4(C)C(=O)O)[C@@H]2CC[C@@H]1C3", "values": [{"measurement": "MIC", "setting": "[1]", "result": 50, "unit": "µg/mL"}, {"measurement": "IC50", "setting": "[2]", "result": "> 10", "unit": "µM"}, {"measurement": "IC50", "setting": "[3]", "result": "> 10", "unit": "µM"}, {"measurement": "MIC", "setting": "[4]", "result": 100, "unit": "µg/mL"}, {"measurement": "MIC", "setting": "[5]", "result": 50, "unit": "µg/mL"}, {"measurement": "IC50", "setting": "[6]", "result": "> 10", "unit": "µM"}, {"measurement": "IC50", "setting": "[7]", "result": "> 10", "unit": "µM"}, {"measurement": "MIC", "setting": "[8]", "result": 50, "unit": "µg/mL"}]}, {"smiles": "C=C1C[C@]2(C(=O)O)C[C@H]1CC[C@H]2[C@]1(C)CCC[C@@](C)(C(=O)OC)[C@H]1C(=O)O", "values": [{"measurement": "MIC", "setting": "[1]", "result": 75, "unit": "µg/mL"}, {"measurement": "IC50", "setting": "[2]", "result": "> 10", "unit": "µM"}, {"measurement": "IC50", "setting": "[3]", "result": "> 10", "unit": "µM"}, {"measurement": "MIC", "setting": "[4]", "result": 150, "unit": "µg/mL"}, {"measurement": "MIC", "setting": "[5]", "result": 150, "unit": "µg/mL"}, {"measurement": "IC50", "setting": "[6]", "result": "> 10", "unit": "µM"}, {"measurement": "IC50", "setting": "[7]", "result": "> 10", "unit": "µM"}, {"measurement": "MIC", "setting": "[8]", "result": 150, "unit": "µg/mL"}]}, {"smiles": "C=CCCC#CC#CC#C/C=C/CCCC[C@@H]1C[C@@H](CO)OC1=O", "values": [{"measurement": "MIC", "setting": "[1]", "result": 12, "unit": "µg/mL"}, {"measurement": "IC50", "setting": "[2]", "result": 10, "unit": "µM"}, {"measurement": "IC50", "setting": "[3]", "result": 10, "unit": "µM"}, {"measurement": "MIC", "setting": "[4]", "result": 12, "unit": "µg/mL"}, {"measurement": "MIC", "setting": "[5]", "result": 12, "unit": "µg/mL"}, {"measurement": "IC50", "setting": "[6]", "result": 10, "unit": "µM"}, {"measurement": "IC50", "setting": "[7]", "result": 10, "unit": "µM"}, {"measurement": "MIC", "setting": "[8]", "result": 50, "unit": "µg/mL"}]}, {"smiles": "CCCCC#CC#CC#CCCCCCCCC(=O)O", "values": [{"measurement": "MIC", "setting": "[1]", "result": 25, "unit": "µg/mL"}, {"measurement": "IC50", "setting": "[2]", "result": 10, "unit": "µM"}, {"measurement": "IC50", "setting": "[3]", "result": 10, "unit": "µM"}, {"measurement": "MIC", "setting": "[4]", "result": 50, "unit": "µg/mL"}, {"measurement": "MIC", "setting": "[5]", "result": 25, "unit": "µg/mL"}, {"measurement": "IC50", "setting": "[6]", "result": 10, "unit": "µM"}, {"measurement": "IC50", "setting": "[7]", "result": 10, "unit": "µM"}, {"measurement": "MIC", "setting": "[8]", "result": 25, "unit": "µg/mL"}]}, {"smiles": "C[C@@H]1[C@H](O)[C@@H](C)/C=C/C=C/C=C/C=C/C=C/C=C/C=C/[C@H](O[C@@H]2O[C@H](C)[C@@H](O)[C@H](N)[C@@H]2O)C[C@@H]2O[C@](O)(C[C@@H](O)C[C@@H](O)[C@H](O)CC[C@@H](O)C[C@@H](O)CC(=O)O[C@H]1C)C[C@H](O)[C@H]2C(=O)O", "note": "[AMPHOTERICIN B]", "values": [{"measurement": "MIC", "setting": "[4]", "result": 25, "unit": "µg/mL"}, {"measurement": "MIC", "setting": "[5]", "result": 25, "unit": "µg/mL"}]}, {"smiles": "CC1(C)S[C@@H]2[C@H](NC(=O)[C@H](N)c3ccccc3)C(=O)N2[C@H]1C(=O)O", "note": "[AMPICILLIN]", "values": [{"measurement": "MIC", "setting": "[8]", "result": 0.1, "unit": "µg/mL"}]}, {"smiles": "NC[C@H]1O[C@H](O[C@H]2[C@H](O)[C@@H](O[C@H]3O[C@H](CO)[C@@H](O)[C@H](N)[C@H]3O)[C@H](N)C[C@@H]2N)[C@H](O)[C@@H](O)[C@@H]1O", "note": "[KANAMYCIN]", "values": [{"measurement": "MIC", "setting": "[1]", "result": 0.2, "unit": "µg/mL"}]}, {"smiles": "O=C1c2ccccc2-c2c3c(cc4ccnc1c24)OCO3", "note": "[LIRIODENINE]", "values": [{"measurement": "MIC", "setting": "[1]", "result": 12, "unit": "µg/mL"}, {"measurement": "IC50", "setting": "[2]", "result": 5, "unit": "µM"}, {"measurement": "IC50", "setting": "[3]", "result": 5, "unit": "µM"}, {"measurement": "MIC", "setting": "[4]", "result": 25, "unit": "µg/mL"}, {"measurement": "MIC", "setting": "[5]", "result": 12, "unit": "µg/mL"}, {"measurement": "IC50", "setting": "[6]", "result": 5, "unit": "µM"}, {"measurement": "IC50", "setting": "[7]", "result": 5, "unit": "µM"}, {"measurement": "MIC", "setting": "[8]", "result": 6.3, "unit": "µg/mL"}]}, {"smiles": "C=CCCC#CC#CC#CCCCCCCCC(=O)OC", "note": "[METHYLOROPHEATE]", "values": [{"measurement": "MIC", "setting": "[1]", "result": 12, "unit": "µg/mL"}, {"measurement": "Activity", "setting": "[2]", "result": "inactive"}, {"measurement": "Activity", "setting": "[3]", "result": "inactive"}, {"measurement": "MIC", "setting": "[4]", "result": 25, "unit": "µg/mL"}, {"measurement": "MIC", "setting": "[5]", "result": 25, "unit": "µg/mL"}, {"measurement": "Activity", "setting": "[6]", "result": "inactive"}, {"measurement": "Activity", "setting": "[7]", "result": "inactive"}, {"measurement": "MIC", "setting": "[8]", "result": 50, "unit": "µg/mL"}]}, {"smiles": "C=C1C[C@]23C[C@H]1CC[C@H]2[C@]1(C)CCC[C@@]2(C)C(=O)O[C@@H](C3=O)[C@@H]12", "note": "[MITREKAURENONE]", "values": [{"measurement": "MIC", "setting": "[1]", "result": 38, "unit": "µg/mL"}, {"measurement": "IC50", "setting": "[2]", "result": "> 10", "unit": "µM"}, {"measurement": "IC50", "setting": "[3]", "result": "> 10", "unit": "µM"}, {"measurement": "MIC", "setting": "[4]", "result": 38, "unit": "µg/mL"}, {"measurement": "MIC", "setting": "[5]", "result": 38, "unit": "µg/mL"}, {"measurement": "IC50", "setting": "[6]", "result": "> 10", "unit": "µM"}, {"measurement": "IC50", "setting": "[7]", "result": "> 10", "unit": "µM"}, {"measurement": "MIC", "setting": "[8]", "result": 150, "unit": "µg/mL"}]}, {"smiles": "C=CCCC#CC#CC#CCCCCCCCC(=O)O", "note": "[OROPHEIC ACID]", "values": [{"measurement": "MIC", "setting": "[1]", "result": 94, "unit": "µg/mL"}, {"measurement": "IC50", "setting": "[2]", "result": 10, "unit": "µM"}, {"measurement": "IC50", "setting": "[3]", "result": 10, "unit": "µM"}, {"measurement": "MIC", "setting": "[4]", "result": 188, "unit": "µg/mL"}, {"measurement": "MIC", "setting": "[5]", "result": 47, "unit": "µg/mL"}, {"measurement": "IC50", "setting": "[6]", "result": 10, "unit": "µM"}, {"measurement": "IC50", "setting": "[7]", "result": 10, "unit": "µM"}, {"measurement": "MIC", "setting": "[8]", "result": 94, "unit": "µg/mL"}]}, {"smiles": "C=CCCC#CC#CC#CCCCCCC[C@@H]1C[C@@H](CO)OC1=O", "note": "[OROPHEOLIDE]", "values": [{"measurement": "MIC", "setting": "[1]", "result": 31, "unit": "µg/mL"}, {"measurement": "IC50", "setting": "[2]", "result": 10, "unit": "µM"}, {"measurement": "IC50", "setting": "[3]", "result": 10, "unit": "µM"}, {"measurement": "MIC", "setting": "[4]", "result": 250, "unit": "µg/mL"}, {"measurement": "MIC", "setting": "[5]", "result": 63, "unit": "µg/mL"}, {"measurement": "IC50", "setting": "[6]", "result": 10, "unit": "µM"}, {"measurement": "IC50", "setting": "[7]", "result": 10, "unit": "µM"}, {"measurement": "MIC", "setting": "[8]", "result": 125, "unit": "µg/mL"}]}]}
